The structures appear in SMILES notation. The source made the active and inactive calls. No rule for the calls is given here.

The experiment relates to 697B cells, BCR-induced NF-kB luciferase reporter luminescence. Nature of the experiment: inhibitors of BCR-induced NF-kB activation, dose response, 697B cells, luciferase luminescence (AID 489023).
Consider `COc1ccc(/C=C\C(=O)O[C@@H]2C(O)C(O[C@@H]3OC(C)[C@H](O[C@@H]4OCC(O[C@H]5O[C@H](CO)[C@@H](O)C(O)C5O)C(O)C4O)C(O)C3O)[C@H](OC(=O)[C@]34CCC(C)(C)C[C@@H]3C3=CCC5[C@@]6(C)CC(O)C(O[C@@H]7OC(CO)C(O)[C@H](O)[C@H]7O)[C@@](C)(C(=O)O)C6CC[C@@]5(C)[C@]3(CO)CC4)O[C@H]2C)cc1` (stereo not given in full), for which the IC50 is 19.8 µM.

For the compound `COc1cccc(Cn2nnc(C(=O)Nc3cc(Cl)ccc3OC)c2N)c1`, the IC50 is > 80 µM (inactive).

Turning to `COc1ccc(/C=C2\SC(=S)N(CCC(=O)Nc3ccc(O)cc3)C2=O)cc1`, the IC50 was > 80 µM (inactive).

Regarding `Cc1cnc(NC(=O)Nc2ccc(Cl)cc2)s1`, the IC50 was > 80 µM (inactive).

For the compound `CCc1ccc(/C=C2/SC(=S)N(CCC(=O)Nc3cccc(C(=O)O)c3)C2=O)cc1`, the IC50 is > 80 µM (inactive).

With `COc1ccc(-c2noc(N3CCC(C(=O)Nc4cccc(OC)c4)CC3)n2)cc1`, the IC50 is > 80 µM (inactive).

For `CCOc1ccc(/C=C2\SC(=S)N(CCC(=O)Nc3ccc(C(=O)O)cc3)C2=O)cc1`, the IC50 is 1.35 µM.

Regarding `CC(C)(C)c1ccc(-c2noc(CCC(N)=O)n2)cc1`, the IC50 was less than 0.16 µM.

Take `CCC(C)N1C(=O)/C(=C/c2c(NCCCOC(C)C)nc3c(C)cccn3c2=O)SC1=S` (stereo not given): the IC50 was > 80 µM (inactive).

For the compound `Cc1nc2cc(-c3cccc(F)c3)nn2c(C)c1CCC(=O)NC(C)CCc1ccco1` (stereo not given), the IC50 was 13.8 µM.

For the compound `CCn1c(=O)cc(SCC(=O)N2CCOCC2)c2ccccc21`, the IC50 is > 80 µM (inactive).

As to `CN(C)S(=O)(=O)c1ccc(NC(=O)N2CCN(c3ccccc3)CC2)cc1`, the IC50 was > 80 µM (inactive).

On to `CC(C)C[C@@H](N)c1nnc(SCC(=O)c2ccc(Cl)cc2)o1`, for which the IC50 is 47.6 µM (inactive).

Take `CN1C(=O)CSc2ccc(NC(=O)N3CCN(c4ccccc4)CC3)cc21`: the IC50 was 74 µM (inactive).

On to `Cn1cnc([N+](=O)[O-])c1Sc1ccc([N+](=O)[O-])cc1`, for which the IC50 is 3.61 µM.

Turning to `CCc1ccc(/C=C2/SC(=S)N(CCC(=O)Nc3ccc(C(=O)O)cc3)C2=O)cc1`, the IC50 was 4.07 µM.

As to `COc1ccc(NC(=O)c2cc3c(Cl)nc4ccccc4c3s2)cc1OC`, the IC50 was 60.3 µM (inactive).

Take `COC(=O)c1c(-c2ccc(N(C)C)cc2)sc2ccc(OC)cc12`: the IC50 is > 80 µM (inactive).

Turning to `CCOC(=O)c1nn(-c2ccccc2)c(C#N)c1NC(=O)c1nn(CC)cc1Br`, the IC50 was > 80 µM (inactive).

Turning to `N=c1ccn2c(n1)O[C@H]1[C@H](O)[C@@H](CO)O[C@H]12`, the IC50 is less than 0.16 µM.

As for `Cc1ccc(C(=O)OCC(=O)N(CC(C)C)c2c(N)n(Cc3ccccc3)c(=O)[nH]c2=O)o1`, the IC50 is 20.6 µM (inactive).

Regarding `COc1ccc(-c2ccc(OC)c([C@H]3[C@H]4C=CC[C@@H](C)[C@@H]4C(=O)N3Cc3ccccc3)c2)cc1C`, the IC50 was > 80 µM (inactive).

For the compound `CNC(=O)c1cccn(Cc2ccc(C(F)(F)F)cc2)c1=O`, the IC50 is 47.9 µM (inactive).

For the compound `O=C(Oc1cccc(/C=N/Nc2nc(Nc3ccccc3)nc(N3CCOCC3)n2)c1)c1ccco1`, the IC50 was 2.99 µM.

For `COC(=O)[C@@]12OC[C@]34[C@H]([C@@H](O)[C@@H]1O)[C@@]1(C)C(=O)C(O[C@@H]5OC(CO)[C@@H](O)[C@@H](O)[C@@H]5O)=C[C@@H](C)[C@@H]1C[C@H]3OC(=O)[C@H](OC(=O)/C=C(\C)C(C)(C)OC(C)=O)[C@@H]24` (stereo not given in full), the IC50 was 0.42 µM.

Take `CCOc1ccc(-c2c[n+]3c(n2-c2ccccc2)CCCCC3)cc1`: the IC50 is > 80 µM (inactive).

Take `CCOC(=O)C1CCN(c2ncnc3c2cnn3-c2ccc(Cl)cc2)CC1`: the IC50 is 0.82 µM.

As for `Cc1cc(OCC(=O)NC2CC2)c2c(C)c(C)c(=O)oc2c1`, the IC50 was > 80 µM (inactive).

Regarding `CCn1c(=O)c2cc(C(=O)NC(C)C)sc2c2ccccc21`, the IC50 is > 80 µM (inactive).

In the case of `CCN(CC(=O)Nc1c(F)cccc1F)C(=O)c1cc(S(=O)(=O)N(CC)CC)ccc1N1CCCCC1`, the IC50 is 4.04 µM.

Consider `N#CC1=C(N)Oc2cc(Nc3ccccc3)ccc2C1c1ccncc1` (stereo not given), for which the IC50 was 8.6 µM.

With `Cc1ccc(-c2c[n+]3c(n2-c2ccccc2)SCC3)cc1`, the IC50 was > 80 µM (inactive).

As for `Cc1ccc(C(=O)NNC(=O)CCCN2C(=O)/C(=C/c3ccccc3Cl)SC2=S)cc1`, the IC50 was 22 µM (inactive).

On to `CCn1c(=O)cc(OCC(=O)Nc2ccc(OC)c(OC)c2)c2ccccc21`, for which the IC50 was > 80 µM (inactive).

In the case of `COc1cc(OC)cc(-c2cc3nc(C)c(CCC(=O)NCc4ccccc4)c(C)n3n2)c1`, the IC50 was 4.7 µM.

`O=C(O)CCSc1ncnc2sc(-c3ccccc3)cc12`: the IC50 is 2.29 µM.

For the compound `Cc1cc(C)cc(NC(=O)c2nnn(Cc3cc(C)ccc3C)c2N)c1`, the IC50 is > 80 µM (inactive).

`CCc1ccc(-c2nnn(CCC(=O)OC)n2)cc1`: the IC50 was 5.46 µM.

As for `CNC(=O)CSc1nc2nn(-c3ccccc3)c(=O)c-2c2n1CCCCC2`, the IC50 was 76.9 µM (inactive).

Consider `O=C(NCCCN1CCOCC1)c1cc(-c2ccc(Br)cc2)on1`, for which the IC50 is 48.1 µM (inactive).

Take `O=C(Nc1ccc(NC(=O)c2cc3ccccc3o2)cc1)c1ccc2c(c1)OCCO2`: the IC50 was 0.3 µM.

In the case of `Cc1ccc(-c2nn3c(C)nnc3c3ccccc23)cc1S(=O)(=O)NCc1ccco1`, the IC50 was 29.3 µM (inactive).

With `O=C(CN1C(=O)c2ccccc2S1(=O)=O)N1CCc2ccccc21`, the IC50 was 1.24 µM.

`CNC(=O)c1cc(Nc2nnc(-c3ccc(O)cc3)c3ccccc23)ccc1OC`: the IC50 was > 80 µM (inactive).

With `O=C(N/N=C/c1ccc(Cl)cc1Cl)c1ccc(-n2cnnn2)cc1`, the IC50 is > 80 µM (inactive).

Regarding `COc1ccc(/C=C2/SC(=S)N(CCCC(=O)Nc3ccc(O)cc3)C2=O)cc1OC`, the IC50 is > 80 µM (inactive).

Turning to `CCN(CC(=O)Nc1c(F)cccc1F)C(=O)c1cc([N+](=O)[O-])ccc1N1CCCCC1`, the 50% inhibitory concentration (IC50) is 13.6 µM.

As to `COc1ccc(NC(=O)c2cc(-c3ccccn3)nc3ccccc23)cc1S(=O)(=O)N(C)C`, the half-inhibitory concentration (IC50) was 7.8 µM.

As for `CCN(CC)C(=O)c1ccc(S(=O)(=O)Cc2ccc(C)cc2)c([N+](=O)[O-])c1`, the IC50 is 3.55 µM.

As to `CC1CC(C)(C)Nc2ccc(OC(=O)c3ccco3)cc21` (stereo not given), the IC50 was 9.11 µM.

(Values after PubChem BioAssay AID489023 (Sanford-Burnham Center for Chemical Genomics, 2010).)
